# Columns and labels:
# Format in all cases: cell-based
# [1] = system: S. aureus Oxford; experiment: in vitro MIC against S. aureus Oxford; conditions: Staphylococcus aureus
# Method: (§1) The compound of the Example was tested in vitro against a number of microorganisms.
# [2] = system: S. pyogenes CN10; experiment: in vitro MIC against S. pyogenes CN10; conditions: Streptococcus pyogenes
# Method: as §1
# [3] = system: S. epidermidis PHLN20; experiment: in vitro MIC against S. epidermidis PHLN20; conditions: Staphylococcus epidermidis
# Method: as §1
# [4] = system: S. agalacticae 2798; experiment: in vitro MIC against S. agalacticae 2798
# Method: as §1
# [5] = system: H. influenzae Ql; experiment: in vitro MIC against H. influenzae Ql; conditions: Haemophilus influenzae
# Method: as §1
# [6] = system: B. catarrhalis Ravasio; experiment: in vitro MIC against B. catarrhalis Ravasio; conditions: Moraxella catarrhalis
# Method: as §1
# [7] = system: S. aureus MB9; experiment: in vitro MIC against S. aureus MB9; conditions: Staphylococcus aureus
# Method: as §1
# [8] = system: E. Coli ESS; experiment: in vitro MIC against E. Coli ESS; conditions: Escherichia coli
# Method: as §1
# [9] = system: S. aureus Russell; experiment: in vitro MIC against S. aureus Russell; conditions: Staphylococcus aureus
# Method: as §1
# [10] = system: S. pneumoniae 1761; experiment: in vitro MIC against S. pneumoniae 1761; conditions: Streptococcus pneumoniae
# Method: as §1
# [11] = system: H. influenzae NEMCl; experiment: in vitro MIC against H. influenzae NEMCl; conditions: Haemophilus influenzae
# Method: as §1
smiles,measurement,setting,value
"CC1(C)S[C@@H]2[C@H](NC(=O)/C(=N\OC3CCCCC3)c3cccc(N)n3)C(=O)N2[C@H]1C(=O)O [Example 1, Sodium 6-β-[2-(2-aminopyridin-6-yl) 2-(Z)-cyclohexyl-oxiyminoacetamido]penicillinate]",MIC,[1],0.5 µg/mL
same,MIC,[2],< 0.03 µg/mL
same,MIC,[3],0.5 µg/mL
same,MIC,[4],0.25 µg/mL
same,MIC,[5],1 µg/mL
same,MIC,[6],0.5 µg/mL
same,MIC,[7],2 µg/mL
same,MIC,[8],0.12 µg/mL
same,MIC,[9],0.5 µg/mL
same,MIC,[10],< 0.03 µg/mL
same,MIC,[11],1 µg/mL
